Remaining activity data for 28 molecules are collected here from patent publication US10053463B2 (Janssen Pharmaceutica NV, priority 2013, dated 2018).

P2X7, sequence (Q99572 whole entry): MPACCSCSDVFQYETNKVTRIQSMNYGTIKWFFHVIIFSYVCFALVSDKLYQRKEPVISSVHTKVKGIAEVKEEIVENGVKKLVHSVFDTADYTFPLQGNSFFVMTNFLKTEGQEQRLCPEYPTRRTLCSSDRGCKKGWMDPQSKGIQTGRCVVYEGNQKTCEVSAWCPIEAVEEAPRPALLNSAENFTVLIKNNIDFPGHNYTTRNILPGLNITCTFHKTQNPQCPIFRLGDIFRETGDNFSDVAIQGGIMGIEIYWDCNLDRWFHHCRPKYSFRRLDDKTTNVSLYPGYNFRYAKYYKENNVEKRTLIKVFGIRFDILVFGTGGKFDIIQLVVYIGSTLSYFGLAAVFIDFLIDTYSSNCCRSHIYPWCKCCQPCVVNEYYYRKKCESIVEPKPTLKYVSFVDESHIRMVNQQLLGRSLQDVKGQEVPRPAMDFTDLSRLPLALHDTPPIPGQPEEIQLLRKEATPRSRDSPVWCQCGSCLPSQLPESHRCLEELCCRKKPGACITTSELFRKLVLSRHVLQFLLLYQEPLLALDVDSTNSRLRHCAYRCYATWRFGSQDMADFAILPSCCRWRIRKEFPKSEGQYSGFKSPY

The assay deals with P2X7 (Homo sapiens (Human), UniProt Q99572). Kind of assay: P2X7 antagonism in human peripheral blood mononuclear cells (PBMCs), IL-1β release. The following applies: P2X7; Table 3 (additional runs); 10 μM compound; read-out: PBMC 10 μM (% control). The format is cell-based. As to the method:
P2X7 Antagonism in Human Peripheral Blood Mononuclear Cells (PBMCs) and Human Whole Blood.
Human blood was collected using a blood donor program. PBMCs were isolated from blood using a Ficoll density gradient technique. Briefly, blood was laid on Ficoll solution and centrifuged at RT for 20 minutes at 2000 rpm. The buffy layer (between red blood cells and plasma) was carefully collected by aspiration, washed with PBS and centrifuged again at 1500 rpm for 15 minutes. The resulting cell pellet was washed and plated on 96 well-plates for experiments. For the Human Whole Blood experiments, 150 μl of human blood was platted on 96 well-plates. Lipopolysaccharide (LPS) (30 ng/ml) was added to each well and incubated for 1 hour. Test compounds were then added and incubated for 30 minutes. The P2X7 agonist, 2′(3′)-O-(4-benzoylbenzoyl) adenosine 5′-triphosphate (Bz-ATP) was then added at a final concentration of 0.5 mM (PBMC) or 1 mM (blood). Cells were incubated for an additional 1.5 hours. At that point, supernatant was collected and stored for IL-1β assay using manufacturer's protocol for enzyme-linked immunosorbent assay (ELISA). Data was expressed as percent control, where control is defined as the difference in IL-1β release in LPS+Bz-ATP samples and LPS only samples. Data was plotted as response (% control) versus concentration to generate IC50 values. […] Data are analyzed and graphed on Graphpad Prism 5. For analysis, each concentration point is averaged from triplicate values and the averaged values are plotted on Graphpad Prism.
On to `C[C@H]1Cn2c(nnc2-c2cncs2)C(=O)N1Cc1cccc(C(F)(F)F)c1Cl` [Example 37, (6S)-7-[2-Chloro-3-(trifluoromethyl)benzyl]-6-methyl-3-(1,3-thiazol-5-yl)-6,7-dihydro[1,2,4]triazolo[4,3-a]pyrazin-8(5H)-one], for which the remaining activity at 10 µM came to 9%. In the case of `C[C@H]1Cn2c(nnc2C2CCC2)C(=O)N1Cc1cccc(C(F)(F)F)c1Cl` [Example 49, (6S)-7-[2-Chloro-3-(trifluoromethyl)benzyl]-3-cyclobutyl-6-methyl-6,7-dihydro[1,2,4]triazolo[4,3-a]pyrazin-8(5H)-one], the remaining activity at 10 µM is -3.1%. For `C[C@H](c1ccccc1)N1C(=O)c2nnc(-c3cnccn3)n2C[C@@H]1C` (relative stereo) [Example 94, (6S)-6-Methyl-7[(1R*)-1-phenylethyl]-3-pyrazin-2-yl-6,7-dihydro[1,2,4]triazolo[4,3-a]pyrazin-8(5H)-one], the remaining activity at 10 µM is -1.3%. Then `C[C@H]1Cn2c(nnc2-c2cnccn2)C(=O)N1Cc1ccc(F)cc1Cl` [Example 78, (6S)-7-(2-Chloro-4-fluorobenzyl)-6-methyl-3-pyrazin-2-yl-6,7-dihydro[1,2,4]triazolo[4,3-a]pyrazin-8(5H)-one], with 8.3%; and `C[C@H]1Cn2c(nnc2-c2cnccn2)C(=O)N1Cc1c(Cl)cccc1Cl` [Example 86, (6S)-7-(2,6-Dichlorobenzyl)-6-methyl-3-pyrazin-2-yl-6,7-dihydro[1,2,4]triazolo[4,3-a]pyrazin-8(5H)-one], with 28.3%; and `CC(c1cccc(C(F)(F)F)c1Cl)N1CCn2c(nnc2-c2cnccn2)C1=O` (racemic) [Example 4, (±)7-{1-[2-Chloro-3-(trifluoromethyl)phenyl]ethyl}-3-pyrazin-2-yl-6,7-dihydro[1,2,4]triazolo[4,3-a]pyrazin-8(5H)-one], with 46%. As for `C[C@H]1Cn2c(-c3ccc(F)cn3)nnc2-c2nnc(-c3cccc(C(F)(F)F)c3Cl)n21` [Example 102, (5S)-3-[2-Chloro-3-(trifluoromethyl)phenyl]-8-(5-fluoropyridin-2-yl)-5-methyl-5,6-dihydrobis[1,2,4]triazolo[4,3-a:3′,4′-c]pyrazine], the remaining activity at 10 µM was 1.4%. Regarding `O=C1c2nnc(-c3ccccn3)n2CCN1Cc1cccc(C(F)(F)F)c1Cl` [Example 9, 7-[2-Chloro-3-(trifluoromethyl)benzyl]-3-pyridin-2-yl-6,7-dihydro[1,2,4]triazolo[4,3-a]pyrazin-8(5H)-one], the remaining activity at 10 µM is -3.1%. As for `C[C@H]1Cn2c(nnc2-c2ccc(F)cc2)C(=O)N1Cc1cccc(C(F)(F)F)c1Cl` [Example 17, (6S)-7-[2-Chloro-3-(trifluoromethyl)benzyl]-3-(4-fluorophenyl)-6-methyl-6,7-dihydro[1,2,4]triazolo[4,3-a]pyrazin-8(5H)-one], the remaining activity at 10 µM was 2%. Then `C[C@H]1Cn2c(nnc2C2CCCNC2)C(=O)N1Cc1cccc(C(F)(F)F)c1Cl` (stereo partly drawn) [Example 60, (6S)-7-[2-Chloro-3-(trifluoromethyl)benzyl]-6-methyl-3-piperidin-3-yl-6,7-dihydro[1,2,4]triazolo[4,3-a]pyrazin-8(5H)-one], with 17.1%; and `O=C1c2nnc(-c3ncccn3)n2CC(C2CC2)N1Cc1cccc(C(F)(F)F)c1Cl` (racemic) [Example 64, (±)-7-[2-Chloro-3-(trifluoromethyl)benzyl]-6-cyclopropyl-3-pyrimidin-2-yl-6,7-dihydro[1,2,4]triazolo[4,3-a]pyrazin-8(5H)-one], with -0.4%.

In the case of `Cc1nc(-c2nnc3n2C[C@H](C)N(Cc2cccc(C(F)(F)F)c2Cl)C3=O)cs1` [Example 36, (6S)-7-[2-Chloro-3-(trifluoromethyl)benzyl]-6-methyl-3-(2-methyl-1,3-thiazol-4-yl)-6,7-dihydro[1,2,4]triazolo[4,3-a]pyrazin-8(5H)-one], the remaining activity at 10 µM was determined as 2.8%. For `C[C@H]1Cn2c(nnc2-c2cnccn2)C(=O)N1Cc1cc(N)ccc1Cl` [Example 91, (6S)-7-(5-Amino-2-chlorobenzyl)-6-methyl-3-pyrazin-2-yl-6,7-dihydro[1,2,4]triazolo[4,3-a]pyrazin-8(5H)-one], the remaining activity at 10 µM was 11.6%. `C[C@@H]1Cn2c(nnc2-c2cnccn2)C(=O)N1Cc1cccc(C(F)(F)F)c1Cl` [Example 15, (6R)-7-[2-Chloro-3-(trifluoromethyl)benzyl]-6-methyl-3-pyrazin-2-yl-6,7-dihydro[1,2,4]triazolo[4,3-a]pyrazin-8(5H)-one]: the remaining activity at 10 µM was found to be 4.1%. Then `O=C1c2nnc(-c3ncc(F)cn3)n2CC(C2CC2)N1Cc1cccc(C(F)(F)F)c1Cl` (racemic) [Example 70, (±)-7-[2-Chloro-3-(trifluoromethyl)benzyl]-6-cyclopropyl-3-(5-fluoropyrimidin-2-yl)-6,7-dihydro[1,2,4]triazolo[4,3-a]pyrazin-8(5H)-one], with 9.1%. The value for `C[C@H]1Cn2c(nnc2-c2csc(C(F)(F)F)n2)C(=O)N1Cc1cccc(C(F)(F)F)c1Cl` [Example 38, (6S)-7-[2-Chloro-3-(trifluoromethyl)benzyl]-6-methyl-3-[2-(trifluoromethyl)-1,3-thiazol-4-yl]-6,7-dihydro[1,2,4]triazolo[4,3-a]pyrazin-8(5H)-one] was 19.8%.

Take `C[C@H]1Cn2c(nnc2-c2cnccn2)C(=O)N1Cc1ccccc1` [Example 79, (6S)-7-Benzyl-6-methyl-3-pyrazin-2-yl-6,7-dihydro[1,2,4]triazolo[4,3-a]pyrazin-8(5H)-one]: the remaining activity at 10 µM came out at 15.6%. With `C[C@H]1Cn2c(nnc2-c2nccc(C(F)(F)F)n2)C(=O)N1Cc1cccc(C(F)(F)F)c1Cl` [Example 54, (6S)-7-[2-chloro-3-(trifluoromethyl)benzyl]-6-methyl-3-[4-(trifluoromethyl)pyrimidin-2-yl]-6,7-dihydro[1,2,4]triazolo[4,3-a]pyrazin-8(5H)-one], the remaining activity at 10 µM was found to be 4.2%. The value for `CS(=O)(=O)c1cc(Cl)ccc1CN1CCn2c(nnc2-c2cnccn2)C1=O` [Example 7, 7-[4-Chloro-2-(methylsulfonyl)benzyl]-3-pyrazin-2-yl-6,7-dihydro[1,2,4]triazolo[4,3-a]pyrazin-8(5H)-one] was 8.8%; that for `C[C@H]1Cn2c(nnc2-c2cnccn2)C(=O)N1[C@@H](C)c1ccccc1` (relative stereo) [Example 95, (6S)-6-Methyl-7-[(1S*)-1-phenylethyl]-3-pyrazin-2-yl-6,7-dihydro[1,2,4]triazolo[4,3-a]pyrazin-8(5H)-one] was 3.1%. Take `O=C1c2nnc(-c3ccc(F)cc3)n2CCN1Cc1cccc(C(F)(F)F)c1Cl` [Example 1, 7-[2-Chloro-3-(trifluoromethyl)benzyl]-3-(4-fluorophenyl)-6,7-dihydro[1,2,4]triazolo[4,3-a]pyrazin-8(5H)-one]: the remaining activity at 10 µM stood at 25.4%.

For `O=C1c2nnc(-c3cnccn3)n2CCN1Cc1cccc(F)c1F` [Example 6, 7-(2,3-Difluorobenzyl)-3-pyrazin-2-yl-6,7-dihydro[1,2,4]triazolo[4,3-a]pyrazin-8(5H)-one], the remaining activity at 10 µM amounted to 23.7%.

As to `C[C@H]1Cn2c(nnc2-c2ccc(Cl)cn2)C(=O)N1Cc1cccc(C(F)(F)F)c1Cl` [Example 56, (6S)-3-(5-Chloropyridin-2-yl)-7-[2-chloro-3-(trifluoromethyl)benzyl]-6-methyl-6,7-dihydro[1,2,4]triazolo[4,3-a]pyrazin-8(5H)-one], the remaining activity at 10 µM turned out to be 11.2%.

Take `C[C@H]1Cn2c(nnc2-c2cnccn2)C(=O)N1Cc1cccc(C(F)(F)F)c1` [Example 88, (6S)-6-Methyl-3-pyrazin-2-yl-7-[3-(trifluoromethyl)benzyl]-6,7-dihydro[1,2,4]triazolo[4,3-a]pyrazin-8(5H)-one]: the remaining activity at 10 µM is 29.9%. Take `C[C@H]1Cn2c(nnc2-c2cc[nH]n2)C(=O)N1Cc1cccc(C(F)(F)F)c1Cl` [Example 28, (6S)-7-[2-Chloro-3-(trifluoromethyl)benzyl]-6-methyl-3-(1H-pyrazol-3-yl)-6,7-dihydro[1,2,4]triazolo[4,3-a]pyrazin-8(5H)-one]: the remaining activity at 10 µM is -11.7%. As to `O=C1c2nnc(-c3cc[nH]n3)n2CC(C2CC2)N1Cc1cccc(C(F)(F)F)c1Cl` (racemic) [Example 68, (±)-7-[2-Chloro-3-(trifluoromethyl)benzyl]-6-cyclopropyl-3-(1H-pyrazol-3-yl)-6,7-dihydro[1,2,4]triazolo[4,3-a]pyrazin-8(5H)-one], the remaining activity at 10 µM amounted to 1.6%. With `C[C@H]1Cn2c(nnc2C2CCOCC2)C(=O)N1Cc1cccc(C(F)(F)F)c1Cl` [Example 53, (6S)-7-[2-Chloro-3-(trifluoromethyl)benzyl]-6-methyl-3-(tetrahydro-2H-pyran-4-yl)-6,7-dihydro[1,2,4]triazolo[4,3-a]pyrazin-8(5H)-one], the remaining activity at 10 µM amounted to 33.2%. With `Cc1cccc(-c2nnc3n2C[C@H](C)N(Cc2cccc(C(F)(F)F)c2Cl)C3=O)n1` [Example 46, (6S)-7-[2-Chloro-3-(trifluoromethyl)benzyl]-6-methyl-3-(6-methylpyridin-2-yl)-6,7-dihydro[1,2,4]triazolo[4,3-a]pyrazin-8(5H)-one], the remaining activity at 10 µM is 2.7%.
